Data set [1] in a line: Acute toxicity in Swiss albino mice (Lichtfield and Wilcoxon). The following applies: in vivo, mouse, mortality within 8 days, read-out: DL50 and range. How it is done:
(§1) The acute toxicity of PEV has been investigated on Swiss albino mice of about 20 grams average weight and in Wister rats of 150±10 grams average weight by administration both through the oral route and by the endoperitoneal route.
(§2) All the animals fasted beginning 12 hours before the experiment. For the experiment, there are used 10 animals that is 5 males and 5 females for each dosage level of treatment. The values of […] are expressed in mg/kg and are calculated on the basis of the mortality which has been determined within 8 days after the administration in accordance with the method of Lichtfield and Wilcoxon.

Data set [2] in a line: Acute toxicity in Wister rats (Lichtfield and Wilcoxon). The following applies: in vivo, rat, mortality within 8 days, read-out: DL50 and range. The protocol: as §1, §2
Data set [3] in a line: Pharmacokinetics: plasma levels of valproic acid in Sprague-Dawley rats. The data set is classed as in vivo. The note with it: rat. The protocol:
The test tubes are then removed from the ice and are stirred for a period of ten minutes. Centrifugation is carried out for the purpose of separating the phases and the organic phase in n-hexane is directly injected into the gas-chromatographic apparatus.
The study of plasma levels is carried out on Sprague-Dawley albino rats of an average body weight of 215 grams (200-230). Prior to the experiment, the rats fasted for a period of twelve hours. The acid is administered both orally and intravenously, but the ester alone is administered orally. The administrations are carried out with equimolar doses, that is in the dose of 1.39 millimole/kg which corresponds to a dose of 230 mg/kg in the case of the acid administered as the sodium salt and a dose of 360 mg/kg in the case of PEV. Both the acid as well as the ester are dissolved in ethyleneglycol:ethyl alcohol in the proportion of 65-35 (V/V). The concentration of the solution is calculated in a manner to administer 2 cc/kg. After the intervals of time shown in Table 2 in minutes or in hours, the rats in groups of six, are killed by decapitation, the blood is collected and centrifuged for the purpose of obtaining the plasma which is extracted and analyzed as previously described.
On the basis of the results, it is concluded that PEV is absorbed more rapidly, but even more significant, more uniformly compared with valproic acid. An index of the dispersion of the data has been calculated by determining the standard variation in percent with respect to the average value for each group under examination.

A further data set is described as follows: Solubility. It counts as physicochemical.
The next data set deals with Wister rats. The following applies: rat, oral, literature value; cited from earlier work.

The source of these data is patent US4442124A, “Valproic acid ester with antiepileptic and anticonvulsant activity and pharmaceutical compositions therefrom” (priority 1979, dated 1984).

SMILES strings stand for the structures.

Take `CCCC(CCC)C(=O)OCOC(=O)C(C)(C)C` [PEV, pivaloyloxymethyl 2-propyl-pentanoate]: the LD50 at 192 h in data set [1] (ip, endoperitoneal) is 510 mg/kg; in data set [1] (oral), 1210 mg/kg; in data set [2] (ip, endoperitoneal) it was 608 mg/kg; in data set [2] (oral) it was 1440 mg/kg. Further, the Absolute biodisponibility in data set [3] (in vivo) is recorded as 72.4%. In data set [3] (in vivo, po), the “Average index of dispersion of plasma levels (standard variation in percent of average)” value is reported as 15.2. The “Difference in biodisponibility in favor of the ester” value in data set [3] (in vivo, po) was determined as 45.5%. The “Presence of PEV (intact ester) in the plasma” value in data set [3] (orally, 1.39 mmoles/kg) is “none of the rats treated with the ester have exhibited the presence of PEV in the plasma”. Besides, the “Solubility in alcohols, ethers, ketones” value in “Solubility” (alcohols, ethers, ketones) is on record as “soluble in alcohols, ethers, ketones”. The Solubility in water entry in “Solubility” (water) was “insoluble in water”.

On to `CCCC(CCC)C(=O)O` [valproic acid, 2-propyl-pentanoic acid], for which the “Average index of dispersion of plasma levels (standard variation in percent of average)” value in data set [3] (in vivo, iv) stood at 18.3; in data set [3] (in vivo, po) it was 60.5. For the same molecule, the “DL50 (Merck Index, 9th Edition)” value in the data set on Wister rats is reported as 670 mg/kg.

On to `CCCC(CCC)C(=O)[O-].[Na+]` [sodium valproate, reference compound], for which the bioavailability in data set [3] (in vivo, 1390 umol/kg, oral, from AUC versus i.v., read-out: Absolute biodisponibility) worked out at 49.9%.
